{
  "source": "paper PMC3646888",
  "about": "(PLoS ONE, 2013)",
  "type_in_all_cases": "in vitro ADME",
  "key": {"CYP2C6": {"target": "T1, CYP2C6 (Rattus norvegicus, UniProt P05178)", "T1 sequence (P05178 1-490)": "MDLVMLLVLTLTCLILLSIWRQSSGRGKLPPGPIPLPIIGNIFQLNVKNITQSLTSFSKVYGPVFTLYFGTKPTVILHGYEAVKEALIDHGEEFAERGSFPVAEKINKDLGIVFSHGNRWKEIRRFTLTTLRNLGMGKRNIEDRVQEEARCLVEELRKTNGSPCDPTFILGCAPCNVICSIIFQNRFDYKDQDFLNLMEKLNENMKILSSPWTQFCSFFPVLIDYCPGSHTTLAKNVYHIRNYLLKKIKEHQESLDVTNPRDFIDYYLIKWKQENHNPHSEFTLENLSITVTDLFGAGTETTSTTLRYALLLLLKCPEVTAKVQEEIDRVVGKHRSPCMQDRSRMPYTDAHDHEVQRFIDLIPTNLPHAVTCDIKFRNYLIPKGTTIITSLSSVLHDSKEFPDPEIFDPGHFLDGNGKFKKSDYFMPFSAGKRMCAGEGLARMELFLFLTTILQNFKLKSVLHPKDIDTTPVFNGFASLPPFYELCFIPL", "experiment": "Fluorescence-based CYP assay, recombinant CYP2C6, substrate EFC", "protocol": "These assays were performed by methods similar to those described by VanAlstine and Hough, Stresser et al., Wulff et al., Henderson et al., and Crespi et al., with minor modifications. All incubations were performed in a final volume of 200 µL of 50 mM potassium phosphate buffer at pH 7.4 containing 1% acetonitrile. CYP inhibitor studies were performed according to the parameters of Table 1. Substrate concentrations were chosen to be near known Km values. As described in the references cited, two different NADPH regenerating systems were used depending on the substrates used (Table 1). Inhibitors were added to either “low” NADPH-regenerating system (final concentration of 8.1 µM NADP^+, 0.4 mM glucose-6-phosphate, 0.4 mM magnesium chloride, 0.2 U/mL glucose-6-phosphate dehydrogenase) or to “high” NADPH-regenerating system (final concentration of 1.3 mM NADP^+, 3.3 mM glucose-6-phosphate, 3.3 mM magnesium chloride, 0.4 U/mL glucose-6-phosphate dehydrogenase) in a total of 0.1 mL buffer. […] For assays utilizing “low” regenerating systems, product formation was monitored continuously by a Victor3 1420 Multilabel Plate Counter at the designated wavelengths (Table 1). […] Product formation was then measured at the designated wavelengths (Table 1). […]"}, "CYP1A2r": {"target": "T2, CYP1A2r (Rattus norvegicus, UniProt P04799)", "T2 sequence (P04799 1-513)": "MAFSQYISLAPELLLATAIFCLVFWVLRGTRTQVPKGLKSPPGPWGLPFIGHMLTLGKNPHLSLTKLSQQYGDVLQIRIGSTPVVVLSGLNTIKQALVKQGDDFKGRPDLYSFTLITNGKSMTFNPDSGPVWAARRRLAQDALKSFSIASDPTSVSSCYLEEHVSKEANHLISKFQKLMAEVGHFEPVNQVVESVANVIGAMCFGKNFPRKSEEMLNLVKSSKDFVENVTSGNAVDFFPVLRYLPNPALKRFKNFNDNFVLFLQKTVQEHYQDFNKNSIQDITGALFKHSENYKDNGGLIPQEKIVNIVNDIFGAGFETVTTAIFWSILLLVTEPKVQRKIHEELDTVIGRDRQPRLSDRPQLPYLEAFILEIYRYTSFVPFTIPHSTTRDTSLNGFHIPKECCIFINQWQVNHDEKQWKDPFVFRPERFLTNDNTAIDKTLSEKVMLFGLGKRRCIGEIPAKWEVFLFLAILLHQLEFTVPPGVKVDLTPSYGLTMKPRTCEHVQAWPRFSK", "experiment": "Fluorescence-based CYP assay, recombinant CYP1A2r, substrate EFC", "protocol": "(§1) These assays were performed by methods similar to those described by VanAlstine and Hough, Stresser et al., Wulff et al., Henderson et al., and Crespi et al., with minor modifications. All incubations were performed in a final volume of 200 µL of 50 mM potassium phosphate buffer at pH 7.4 containing 1% acetonitrile. CYP inhibitor studies were performed according to the parameters of Table 1. Substrate concentrations were chosen to be near known Km values. As described in the references cited, two different NADPH regenerating systems were used depending on the substrates used (Table 1). […] Samples were pre-incubated at 37°C for the designated times, and the reactions were initiated with the addition of a substrate and enzyme mixtures (Table 1). […] For the assays utilizing the “high” regenerating system, enzyme reactions were terminated at the designated time by the addition of 75 µL of 2N NaOH, followed by a 2 h post-incubation at 37°C. Product formation was then measured at the designated wavelengths (Table 1). For the “low” regenerating system assays, blanks and standards were prepared in 0.1 mL buffer without the regenerating system. For the “high” regenerating system assays, blanks and standards containing 0.1 mL of buffer received 75 µL of 2N NaOH following pre-incubation."}, "CYP1A2h": {"target": "T3, CYP1A2h (Homo sapiens, UniProt P05177)", "T3 sequence (P05177 1-516)": "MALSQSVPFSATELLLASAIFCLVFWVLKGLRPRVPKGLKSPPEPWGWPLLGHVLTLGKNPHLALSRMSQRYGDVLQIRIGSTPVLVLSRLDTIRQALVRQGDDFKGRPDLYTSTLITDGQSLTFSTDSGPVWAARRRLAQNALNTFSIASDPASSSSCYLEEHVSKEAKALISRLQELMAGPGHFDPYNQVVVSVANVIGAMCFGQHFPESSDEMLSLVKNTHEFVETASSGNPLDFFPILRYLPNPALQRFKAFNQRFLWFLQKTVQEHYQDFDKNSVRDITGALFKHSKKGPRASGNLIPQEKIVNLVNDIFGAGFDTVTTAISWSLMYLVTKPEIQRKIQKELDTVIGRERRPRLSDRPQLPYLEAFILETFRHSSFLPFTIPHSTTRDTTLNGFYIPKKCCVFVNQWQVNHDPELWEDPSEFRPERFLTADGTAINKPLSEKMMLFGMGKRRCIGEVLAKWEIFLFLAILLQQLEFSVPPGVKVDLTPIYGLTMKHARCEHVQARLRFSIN", "experiment": "Fluorescence-based CYP assay, recombinant CYP1A2h, substrate CEC", "protocol": "as §1"}, "CYP3A4": {"target": "CYP3A4 (Homo sapiens, UniProt P08684)", "sequence (P08684 whole entry)": "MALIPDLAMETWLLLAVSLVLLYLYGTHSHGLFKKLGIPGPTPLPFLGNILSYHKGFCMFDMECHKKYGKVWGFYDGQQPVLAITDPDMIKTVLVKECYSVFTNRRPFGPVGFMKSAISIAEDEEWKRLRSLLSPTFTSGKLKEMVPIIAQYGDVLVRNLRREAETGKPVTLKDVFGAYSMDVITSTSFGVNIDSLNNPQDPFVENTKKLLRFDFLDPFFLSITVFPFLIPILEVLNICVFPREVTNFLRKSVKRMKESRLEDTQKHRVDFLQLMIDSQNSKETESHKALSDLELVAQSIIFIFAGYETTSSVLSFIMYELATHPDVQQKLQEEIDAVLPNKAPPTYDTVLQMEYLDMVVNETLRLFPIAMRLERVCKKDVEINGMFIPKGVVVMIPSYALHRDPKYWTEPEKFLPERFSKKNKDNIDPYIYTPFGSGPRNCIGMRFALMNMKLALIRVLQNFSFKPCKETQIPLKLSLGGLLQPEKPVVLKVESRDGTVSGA", "experiment": "Fluorescence-based CYP3A4 assay with BFC as substrate", "protocol": "as §1"}},
  "note": "Entries after “also recorded” stand apart in the source; their conditions may differ.",
  "data": [
    {"smiles": "Clc1ccccc1C(c1ccccc1)(c1ccccc1)n1ccnc1", "note": "[Clotrimazole]", "values": [
      {"measurement": "Inhibition of CYP2C6 (in words)", "setting": "CYP2C6; positive control", "value": "potent inhibitor"},
      {"measurement": "Inhibition of CYP1A2r (in words)", "setting": "CYP1A2r; clotrimazole concentration-response, Fig. 1C", "value": "only partly inhibited"}
    ]},
    {"smiles": "Clc1ccccc1C(c1ccccc1)(c1ccccc1)n1cccn1", "note": "[TRAM-34, 1-[(2-chlorophenyl)diphenylmethyl]-1H-pyrazole]", "values": [
      {"measurement": "IC50", "setting": "CYP2C6; recombinant rat CYP2C6, EFC 5 µM", "value": 2.9, "unit": "µM"},
      {"measurement": "IC50", "setting": "CYP1A2r", "value": "> 80", "unit": "µM"},
      {"measurement": "Inhibition of CYP1A2r (in words)", "setting": "CYP1A2r; concentrations up to 80 µM", "value": "no inhibition; also recorded: no inhibitory effects"},
      {"measurement": "IC50", "setting": "CYP1A2h", "value": "> 80", "unit": "µM"},
      {"measurement": "Inhibition of CYP1A2h (in words)", "setting": "CYP1A2h; up to 80 µM", "value": "little to no inhibition; also recorded: no inhibitory effects"},
      {"measurement": "Effect on CYP3A4 activity with BFC (in words)", "setting": "CYP3A4; substrate BFC", "value": "concentration-dependent stimulation"},
      {"measurement": "Magnitude of stimulation of CYP3A4 with BFC", "setting": "CYP3A4; substrate BFC 50 µM, maximum stimulation", "value": "~200", "unit": "%"}
    ]}
  ]
}
